Measurements from article PMC11839852, “Preclinical comparison of (radio)lanthanides using mass spectrometry and nuclear imaging techniques: biodistribution of lanthanide-based tumor-targeting agents and lanthanides in ionic form” (European Journal of Nuclear Medicine and Molecular Imaging, 2024).
Read-outs that look alike come from different tables or passages of the source. Where a SMILES comes first, the peptide text is derived from it. Bridges are numbered along the chain shown (N, C = ends). [ ]: non-standard residue; d: D form. The star is where a group is joined. DOTA = O=C(O)CN1CCN(CC(=O)O)CCN(CC(=O)*)CCN(CC(=O)O)CC1; dPhe(4-NHCONH2) = NC(=O)Nc1ccc(C[C@@H](N)C(=O)O)cc1; Phe(4-Cl) = N[C@@H](Cc1ccc(Cl)cc1)C(=O)O

Key:
[1] = parameters: method as in doi:10.1007/BF02040048, PMID 16411740, PMID 16644751; details: coordination with DOTA chelator; cited from earlier work
[2] = tested on: AR42J, PC-3 PIP and KB tumor cells; experiment: In vitro cell uptake of Ln-DTPA complexes; format: cell-based; details: all tumor cell lines, 1 h and 4 h incubation
Method: A mixture of equal molar amounts of the lanthanide chloride salts (100 nM stock solutions of ^natLuCl3, ^natTbCl3, ^natGdCl3, and ^natEuCl3, diluted in saline with an adjusted pH value to 3.5‒4.0) was prepared to obtain a final concentration of 10 pmol/mL (2.5 pmol/mL per lanthanide salt) and tested with AR42J, PC-3 PIP and KB tumor cells according to the same protocol as described for the Ln-labeled biomolecules (Supplementary Material). Analogous in vitro cell uptake studies were also performed with lanthanide metal complexes of diethylenetriaminepentaacetic acid (DTPA, Sigma Aldrich Chemie, Steinheim, Germany) to obtain a final concentration of 10 pmol/mL (2.5 pmol/mL per lanthanide complex) (Supplementary Material).
Methods: The same experimental setting as described for Ln-labeled biomolecules was applied to perform uptake and internalization studies with the lanthanide DTPA complexes (Ln-DTPA; Ln = ^natLu, ^natTb, ^natGd and ^natEu). The lanthanides were dissolved in 0.05 M hydrochloric acid and further diluted in a 1:5 (v/v) mixture of sodium acetate (0.5 M) and hydrochloric acid (0.05 M), pH ~4.5. A 10-fold molar excess of DTPA (5 mM, aq.) was added to each lanthanide dilution and the reaction mixtures were incubated for 10 min at 95 °C. The complexed lanthanides were further diluted in saline with an adjusted pH value to 3.5-4.0 for in vitro experiments. The applied solution was a mixture of the four Ln-DTPA complexes at a final concentration of 0.4 µM. Of these mixtures, 25 μL were added to the well with the corresponding tumor cells. The tumor cells were incubated for 1 h and 4 h, respectively, at 37 °C and 5% CO2. After incubation, the tumor cells were treated as described for the Ln-labeled biomolecules and processed for the measurement with ICP-MS.

[3] = tested on: non-tumor-bearing immunocompetent FVB mice; experiment: Biodistribution of Ln-DTPA complexes (multiplexed ICP-MS); details: 1 h p.i.
[4] = tested on: non-tumor-bearing immunocompetent FVB mice; details: mouse, in vivo, 1 h
[5] = Biodistribution of Ln-DOTATATE and Ln-DOTA-LM3 (multiplexed ICP-MS); details: female, CD1 nude, mouse, intravenous, 0.5 nmol, AR42J tumor-bearing mice; for tissue uptake at 1 h: 1 h p.i.; for tissue uptake at 24 h: 24 h p.i.
[6] = AR42J tumor, Tissue uptake: AR42J tumor
[7] = intestines, Tissue uptake: Intestines
[8] = kidneys, Tissue uptake: Kidneys
[9] = pancreas, Tissue uptake: Pancreas
[10] = salivary glands, Tissue uptake: Salivary glands

In the case of O=C([O-])CN1CCN(CC(=O)[O-])CCN(CC(=O)[O-])CCN(CC(=O)[O-])CC1.[Eu+3] [Eu-DOTA], the logK [1] is given as 23.4.

In the case of O=C([O-])CN1CCN(CC(=O)[O-])CCN(CC(=O)O)CCN(CC(=O)[O-])CC1.[Gd+3] [Gd-DOTA], the logK [1] is listed as 24.6.

In the case of O=C([O-])CN1CCN(CC(=O)[O-])CCN(CC(=O)[O-])CCN(CC(=O)[O-])CC1.[Lu+3] [Lu-DOTA], the logK [1] is given as 25.4.

In the case of O=C([O-])CN1CCN(CC(=O)[O-])CCN(CC(=O)[O-])CCN(CC(=O)[O-])CC1.[Tb+3] [Tb-DOTA], the logK [1] is given as 24.2.

For O=C([O-])CN(CCN(CC(=O)[O-])CC(=O)[O-])CCN(CC(=O)[O-])CC(=O)[O-].[Eu+3] [[^153Eu]Eu-DTPA], the “Lanthanide detected in cell samples (background levels)” value (“Lanthanide detected in cell samples” for short) [2] was < 20 ppt, the “Tissue uptake: Blood” value [3] was <0.5 % ID/g and the “Tissue uptake: Bone” value [3] was <0.5 % ID/g. For the same compound, the “Tissue uptake: Brain” value [3] was <0.5 % ID/g, the “Tissue uptake: Heart” value [3] was <0.5 % ID/g and the “Tissue uptake: Intestines” value [3] was <0.5 % ID/g. For the same compound, the “Tissue uptake: Kidneys” value [3] was 2.1 ± 1.0 % ID/g, the “Tissue uptake: Liver” value [3] was <0.5 % ID/g and the “Tissue uptake: Lung” value [3] was <0.5 % ID/g. For the same compound, the “Tissue uptake: Muscle” value [3] was <0.5 % ID/g, the “Tissue uptake: Pancreas” value [3] was <0.5 % ID/g and the “Tissue uptake: Salivary glands” value [3] was <0.5 % ID/g. For the same compound, the “Tissue uptake: Spleen” value [3] was <0.5 % ID/g and the “Tissue uptake: Stomach” value [3] was 0.51 ± 0.07 % ID/g.

With O=C([O-])CN(CCN(CC(=O)[O-])CC(=O)[O-])CCN(CC(=O)[O-])CC(=O)[O-].[Gd+3] [[^157Gd]Gd-DTPA] the “Lanthanide detected in cell samples” value [2] was < 60 ppt, the “Tissue uptake: Blood” value [4] was <0.5 % ID/g and the “Tissue uptake: Bone” value [4] was <0.5 % ID/g. For the same compound, the “Tissue uptake: Brain” value [4] was <0.5 % ID/g, the “Tissue uptake: Heart” value [4] was 0.55 ± 0.06 % ID/g and the “Tissue uptake: Intestines” value [4] was <0.5 % ID/g. The “Tissue uptake: Kidneys” value [4] was 2.1 ± 0.9 % ID/g, the “Tissue uptake: Liver” value [4] was <0.5 % ID/g and the “Tissue uptake: Lung” value [4] was 0.56 ± 0.12 % ID/g. The “Tissue uptake: Muscle” value [4] was 0.51 ± 0.07 % ID/g, the “Tissue uptake: Pancreas” value [4] was <0.5 % ID/g and the “Tissue uptake: Salivary glands” value [4] was <0.5 % ID/g. The “Tissue uptake: Spleen” value [4] was 0.52 ± 0.03 % ID/g and the “Tissue uptake: Stomach” value [4] was 0.77 ± 0.17 % ID/g.

For O=C([O-])CN(CCN(CC(=O)[O-])CC(=O)[O-])CCN(CC(=O)[O-])CC(=O)[O-].[Tb+3] [[^159Tb]Tb-DTPA], the “Lanthanide detected in cell samples” value [2] was < 20 ppt, the “Tissue uptake: Blood” value [3] was <0.5 % ID/g and the “Tissue uptake: Bone” value [3] was <0.5 % ID/g. For the same compound, the “Tissue uptake: Brain” value [3] was <0.5 % ID/g, the “Tissue uptake: Heart” value [3] was <0.5 % ID/g and the “Tissue uptake: Intestines” value [3] was <0.5 % ID/g. The “Tissue uptake: Kidneys” value [3] was 2.1 ± 1.0 % ID/g, the “Tissue uptake: Liver” value [3] was <0.5 % ID/g and the “Tissue uptake: Lung” value [3] was <0.5 % ID/g. For the same compound, the “Tissue uptake: Muscle” value [3] was <0.5 % ID/g, the “Tissue uptake: Pancreas” value [3] was <0.5 % ID/g and the “Tissue uptake: Salivary glands” value [3] was <0.5 % ID/g. The “Tissue uptake: Spleen” value [3] was <0.5 % ID/g and the “Tissue uptake: Stomach” value [3] was <0.5 % ID/g.

Compound C[C@@H](O)[C@@H]1NC(=O)[C@H](CCCCN)NC(=O)[C@@H](Cc2ccc(NC(N)=O)cc2)NC(=O)[C@H](Cc2ccc(O)cc2)NC(=O)[C@H](NC(=O)[C@H](Cc2ccc(Cl)cc2)NC(=O)CN2CCN(CC(=O)O)CCN(CC(=O)O)CCN(CC(=O)O)CC2)CSSC[C@@H](C(=O)N[C@H](Cc2ccc(O)cc2)C(N)=O)NC1=O [[^175Lu]Lu-DOTA-LM3] ({DOTA}-[Phe(4-Cl)][dC]Y[dPhe(4-NHCONH2)]KTC[dY]-NH2; disulfide 2-7 (inferred); C-terminus assumed) has a tissue uptake at 1 h [5, 6] of 4.5 ± 0.2 %ID/g, a tissue uptake at 24 h [5, 6] of 2.7 ± 0.3 %ID/g and a tissue uptake at 1 h ([5]; blood, Tissue uptake: Blood) of 0.51 ± 0.1 %ID/g. The tissue uptake at 24 h ([5]; blood, Tissue uptake: Blood) was < 0.5 %ID/g, the tissue uptake at 1 h ([5]; bone, Tissue uptake: Bone) was < 0.5 %ID/g and the tissue uptake at 24 h ([5]; bone, Tissue uptake: Bone) was < 0.5 %ID/g. For the same compound, the tissue uptake at 1 h ([5]; brain, Tissue uptake: Brain) was < 0.5 %ID/g, the tissue uptake at 24 h ([5]; brain, Tissue uptake: Brain) was < 0.5 %ID/g and the tissue uptake at 1 h ([5]; heart, Tissue uptake: Heart) was < 0.5 %ID/g. The tissue uptake at 24 h ([5]; heart, Tissue uptake: Heart) was < 0.5 %ID/g, the tissue uptake at 1 h [5, 7] was 0.6 ± 0.24 %ID/g and the tissue uptake at 24 h [5, 7] was < 0.5 %ID/g. The tissue uptake at 1 h [5, 8] was 11 ± 1 %ID/g, the tissue uptake at 24 h [5, 8] was 4.8 ± 0.5 %ID/g and the tissue uptake at 24 h ([5]; liver, Tissue uptake: Liver) was < 0.5 %ID/g. For the same compound, the tissue uptake at 24 h ([5]; lung, Tissue uptake: Lung) was < 0.5 %ID/g, the tissue uptake at 1 h ([5]; muscle, Tissue uptake: Muscle) was < 0.5 %ID/g and the tissue uptake at 24 h ([5]; muscle, Tissue uptake: Muscle) was < 0.5 %ID/g. The tissue uptake at 1 h [5, 9] was 1.1 ± 0.1 %ID/g, the tissue uptake at 24 h [5, 9] was 0.51 ± 0.17 %ID/g and the tissue uptake at 1 h [5, 10] was < 0.5 %ID/g. For the same compound, the tissue uptake at 24 h [5, 10] was < 0.5 %ID/g, the tissue uptake at 1 h ([5]; spleen, Tissue uptake: Spleen) was < 0.5 %ID/g and the tissue uptake at 24 h ([5]; spleen, Tissue uptake: Spleen) was < 0.5 %ID/g. For the same compound, the tissue uptake at 1 h ([5]; stomach, Tissue uptake: Stomach) was 1.3 ± 0.2 %ID/g.

With O=C([O-])CN(CCN(CC(=O)[O-])CC(=O)[O-])CCN(CC(=O)[O-])CC(=O)[O-].[Lu+3] [[^175Lu]Lu-DTPA] the “Lanthanide detected in cell samples” value [2] was < 20 ppt, the “Tissue uptake: Blood” value [3] was <0.5 % ID/g and the “Tissue uptake: Bone” value [3] was <0.5 % ID/g. The “Tissue uptake: Brain” value [3] was <0.5 % ID/g, the “Tissue uptake: Heart” value [3] was <0.5 % ID/g and the “Tissue uptake: Intestines” value [3] was <0.5 % ID/g. The “Tissue uptake: Kidneys” value [3] was 2.3 ± 1.0 % ID/g, the “Tissue uptake: Liver” value [3] was <0.5 % ID/g and the “Tissue uptake: Lung” value [3] was <0.5 % ID/g. The “Tissue uptake: Muscle” value [3] was <0.5 % ID/g, the “Tissue uptake: Pancreas” value [3] was <0.5 % ID/g and the “Tissue uptake: Salivary glands” value [3] was <0.5 % ID/g. For the same compound, the “Tissue uptake: Spleen” value [3] was <0.5 % ID/g and the “Tissue uptake: Stomach” value [3] was <0.5 % ID/g.
